Measured values reported in US8691799B2, “Materials and methods for treatment of cancer and identification of anti-cancer compounds” (priority 2001, dated 2014).

What was measured:
[1] = system: SRE-dependent pRLSRE renilla luciferase reporter; assay: SRE-dependent luciferase reporter assay in v-Src/NIH 3T3 fibroblasts; assay type: cell-based, murine; details: 10 μM, 24-48 hr
Text: DNA Binding and Transcription. The STAT3 reporter, pLucTKS3, driving expression of firefly luciferase has been previously described (Turkson, J. et al. Mol. Cell Biol., 1999, 19:7519-7528). The pLucTKS3 plasmid harbors seven copies of a sequence corresponding to the STAT3-specific binding site in the promoter of the human C-reactive protein gene (Zhang, D. et al. J. Biol. Chem., 1996, 271:9503-9509). The STAT3-independent plasmid, pRLSRE, contains two copies of the serum response element (SRE) from the c-fos promoter (Yamauchi, K. et al. J. Biol. Chem., 1993, 268:14597-14600), subcloned into renilla luciferase reporter, pRL-null (Promega Corporation, Madison, Wis.).
Transfection and Generation of Stable Clones. […]
Preparation of Cytosolic Extracts. […] Cells were resuspended in 0.4 ml of low-salt HEPES buffer (10 mM HEPES, pH 7.8, 10 mM KCl, 0.1 mM EGTA, 0.1 mM EDTA, 1 mM PMSF, and 1 mM DTT) for 15 min, lysed by the addition of 20 μl of 10% NP-40, and centrifuged (10,000×g, 30 sec, 4° C.) to obtain the cytosolic supernatant, which was used for luciferase assays (Promega Corporation) measured with a luminometer.

Src = Src kinase autophosphorylation assay on immunoprecipitates; assay type: biochemical; details: immunoprecipitates from A549, MDA-MB-468 or v-Src/NIH 3T3 cells
Method: Src Kinase Assay. A549, MDA-MB-468, and v-Src cells were harvested and lysed for 30 min on ice in RIPA150 buffer (10 mM Tris, pH 7.5, 150 mM NaCl, 10% glycerol, 5 mM EDTA, 1% Triton-X-100, 0.1% SDS, 100 μM sodium orthovanadate, 10 μg/ml aprotinin, 10 μg/ml leupeptin, 1 μg/ml antipain). Samples were spun at high speed to clear, then 1000 μg of protein were immunoprecipitated per treatment condition with 2 μg v-Src antibody (Ab-1, Oncogene Research Products, San Diego, Calif.) rocking overnight at 4° C. 25 μl of protein A/G PLUS agarose then was added and rocking continued for 4 hr at 4° C. Samples were spun to collect agarose pellet, and pellet washed three times in RIPA150 buffer, twice in RIPA10 buffer (10 mM Tris, pH 7.5, 10 mM NaCl, 10% glycerol, 5 mM EDTA, 1% Triton-X-100, 0.1% SDS, 100 μM sodium orthovanadate 10 μg/ml aprotinin, 10 μg/ml leupeptin, 1 μg/ml antipain), and three times in 40 mM Tris, pH 7.4. Pellet was then resuspended in 30 μl kinase reaction buffer (20 mM Tris, pH 7.4, 5 mM MgCl2) containing 10 μCi γ-[^32P]ATP. Inhibitors were preincubated for several minutes before the addition of the ATP. Kinase reactions were carried out at room temperature for 15 min. Reaction was stopped with the addition of 2×SDS-PAGE sample buffer. Samples were boiled and run on 10% SDS-PAGE gels. Autophosphorylation results were visualized by autoradiography.

B16-F10 tumors = assay: Antitumor activity, B16-F10 melanoma in C57 black mice; assay type: in vivo; details: 1 mg/Kg/day
Text: Antitumor Activity in the Nude Mouse Tumor Xenograft Model. Nude mice and C57 BL-6 black mice (National Cancer Institute, Bethesda, Md.) were maintained in accordance with the Institutional Animal Care and Use Committee (IACUC) procedures and guidelines. v-Src- and oncogenic H-Ras-transformed NIH 3T3, A549, MDA-MB-468 and Calu-1 cells were harvested, resuspended in PBS and injected s.c. into the right and left flank (10×10^6 cells per flank) of 8 week old female nude mice as reported previously (Sun, J. et al. Cancer Res., 1999, 59:4919-4926). Similarly, murine B16-F10 Melanoma cells were injected s.c. into the right and left flank (10^6 cells per flank) of C57 black mice. When tumors reached about 150 mm^3, animals were randomized (five animals per group; two tumors per animal) and dosed i.p. with 0.2 ml once daily. Control animals received DMSO (20%) vehicle whereas treated animals were injected with JSI-124 (1 mg/kg/day) in 20% DMSO in water. The tumor volumes were determined by measuring the length (l) and the width (w) and calculating the volume (V=1w^2/2) as described previously (Sun, J. et al. Cancer Res., 1999, 59:4919-4926). Statistical significance between control and treated animals were evaluated by using Student's t-test. […] Percent surviving mice was determined by monitoring the death of mice until all mice died. […]

Question: With `CC(C)(O)/C=C/C(=O)[C@](C)(O)[C@H]1[C@H](O)C[C@@]2(C)[C@@H]3CC=C4[C@@H](C=C(O)C(=O)C4(C)C)[C@]3(C)C(=O)C[C@]12C` [JSI-124, cucurbitacin I] as the compound, how does the “pRLSRE (SRE-dependent) luciferase reporter” value [1] read?
Answer: The value was “without affecting”.

Question: And the “Src kinase activity (autophosphorylation) in vitro” value (Src)?
Answer: Its value is “not affected”.

Question: And the “average size of B16-F10 tumors” value (B16-F10 tumors)?
Answer: Its value is 588±94.

Question: And the “inhibition of B16-F10 tumor growth” value (B16-F10 tumors)?
Answer: The value was 56%.
